According to ChEMBL document CHEMBL1158202, “Plakortides, novel cyclic peroxides from the sponge Plakortis halichondrioides: activators of cardiac SR-CA(2+)-pumping ATPase” (J Nat Prod, 1996):
Activity calls are given as the source filed them. No cut-off for these calls is given here.

Species: Canis lupus familiaris
Assay: Induction of Ca2+ uptake in sarcoplasmic reticular-vesicle isolated from dog cardiac ventricle at 10 to 100 uM by fluorimetric method
Type: functional, tissue-based
CC/C=C/C(CC)C[C@@]1(C)C[C@@H](CC)[C@H](CC(=O)OC)OO1 (some centres undefined) was tested, and the Activity was “Active”. In the case of CC/C=C/C(CC)CCC[C@@]1(CC)C[C@H](CC)[C@H](CC(=O)OC)OO1 (some centres undefined), the Activity was “Active”. With CC/C=C/C(CC)CCC[C@]1(CC)C[C@H](CC)[C@H](CC(=O)OC)OO1 (some centres undefined) the Activity was “Active”. In the case of CC/C=C/C(CC)C/C(C)=C/[C@]1(CC)C[C@H](CC)[C@H](CC(=O)OC)OO1 (some centres undefined), the Activity was “Active”.
